# Experimental data reported in patent US12544335B2, “Treatment approach by targeted delivery of bioactive molecules” (priority 2018, dated 2026).
# Key:
# [1] = In-vitro release of isoniazid from CaS/HA pellets in PBS; type: physicochemical; details: day 1, PBS
# Description: Method: Isoniazid was mixed to CaS/HA biomaterial and equal volume pellets were created. Each pellet was then placed in a 1.5 mL tube and filled with 1 mL phosphate buffered saline (PBS). At each time point, the old PBS was removed and frozen until the day of analysis. The tube was refilled with fresh PBS (1 mL). All samples were analyzed spectrophotometrically and the concentration of the released antibiotic was calculated from a standard curve of isoniazid made in PBS.
# S. aureus = test: Example 18: zone of inhibition of materials harvested from rat muscle pouch; type: cell-based; details: Cerament G / Cerament V, 2 weeks implanted, no systemic antibiotic
# Text: Small pellets of pristine hydroxyapatite (HA) of nano or micro size (wherein the micro-HA particles are about 10 μm, wherein the nano-HA particles are less than 200 nm and a majority of the nano-HA particles about 50 nm) were implanted in the abdominal muscle pouch of rats (Group 1). In another set of animals, pellets of calcium sulphate and micro-sized HA (Cerament) containing gentamycin (Cerament G) or vancomycin (Cerament V) were implanted in the muscle pouch of rats (Group 2).
# […] Tibial cortical bone samples were also collected as positive control and muscle tissue from the abdomen was collected as a negative control.
# In group 2, no antibiotics were administered systemically, and the implants only contained locally added antibiotics at the time of administration.
# All samples were snap frozen in liquid nitrogen and pulverized using a mortar and pestle. Pulverized specimens were then placed in a silicon mold, casted as a pellet and placed in a bacterial culture plate containing S. aureus, a common pathogen found in bone and joint infections.
# [2] = Accretion and long-term availability of 14C-ZA in CaS/HA in femoral neck canal; type: in vivo, osteoporotic rats; details: systemic dose 0.1 mg/kg 2 weeks post implantation
# Description: Methods: The CaS/HA biomaterial was implanted in the femoral neck canal of 6 osteoporotic rats. The animals (n=3) then received a systemic (sub-cutaneous) dose of ^14C-ZA (0.1 mg/kg, specific radioactivity: 7.1 MBq/mL) 2-weeks post implantation. The animals were sacrificed 6 months post implantation (5 months and 2 weeks post injection). Results: The uptake of ^14C-ZA in the animals that were given a systemic dose of ^14C-ZA was verified using scintillation counting. Results are illustrated in FIG. 6.
# [3] = Apatite particle size dependence of 14C-ZA uptake in muscle pouch; type: in vivo, rats; details: 25 mg particles, 0.1 mg/kg ZA 2 weeks post implantation, 1 day post injection
# Description: Method: We used 25 mg of micro sized pure apatite particles (size: 10 μm) and 25 mg of nano sized apatite particles (size: <200 nm) and placed them bilaterally in the abdominal muscle pouch of rats. Each animal then received a systemic dose of ^14C-ZA 2-weeks post implantation (Injection dose: 0.1 mg/kg ZA, drug/rat: 40 μg, specific radioactivity: 7.1 MBq/mL, ZA concentration: 1 mg/mL). The rats were sacrificed 1-day post injection and the radioactivity in micro and nano apatite particles was measured using scintillation counting.
# [4] = Uptake of systemic 14C-ZA in CaS/HA pellet in abdominal muscle pouch; type: in vivo, rats
# Description: 2-weeks after surgery, the animals were injected with ^14C labelled ZA (0.1 mg/kg, specific radioactivity: 7.1 MBq/mL) via the systemic route (sub-cutaneous) and the radioactivity was measured in 1) the CaS/HA pellet placed in the muscle and 2) surrounding muscle 24-h later.
# [5] = Re-loading of apatite particles by repeated 14C-ZA injection; type: in vivo, rats; details: injections day 14 and day 27, average
# Description: Methods: We used 25 mg of micro sized pure apatite particles (size: 10 μm) and 25 mg of nano sized apatite particles (size: <200 nm) and placed them bilaterally in the abdominal muscle pouch of rats. Two different time points were used. At time point 1 (day 14), all animals received the same amount of the radioactive ^14C-ZA. […] All animals were sacrificed a day later and the uptake of the drug measured in the apatite particles of two different sizes using scintillation counting.
# [6] = In-vitro doxorubicin binding to apatite particles; details: 10 μg Doxorubicin in 1 mL PBS, 48 h
# Description: Methods: 5 mg, 10 mg and 20 mg apatite particles were suspended in 1 mL PBS containing 10 μg Doxorubicin and homogenously distributed in the suspension using sonication for 5 min. The specimens were rotated gently on a rotational shaker for 48 h (speed: 50 rpm). After 48 h, the specimens were centrifuged to obtain a pellet of the apatite particles and the supernatant was collected. The apatite particles were then resuspended in 1 mL of PBS, thoroughly pipetted to wash the unbound drug. At this point, the particles were centrifuged again and the supernatant was collected. The washing was repeated once again using the same protocol and the supernatant from the original time and 2 supernatants from the washing steps were measured for fluorescence on a spectro fluorimeter (excitation: 485 nm and emission: 580 nm). Bound doxorubicin to the apatite particles was also detected using fluorescence microscopy. Unbound free drug was used as a control.
# [7] = In-vivo doxorubicin binding to nano apatite particles in muscle pouch, fluorescence microscopy; set-up: species or system rats
# Description: Methods: 25 mg of nano sized apatite particles (size <200 nm) were implanted in the abdominal muscle pouch of rats. Animals were injected with 5 mg/kg doxorubicin re-suspended in PBS 2-weeks post implantation and the animals were sacrificed 1 day later. The specimens were harvested from the implanted muscle pouch and as a positive control, the site of doxorubicin systemic injection (skin under the neck) was also taken for histology. The samples were embedded in paraffin and cut to a thickness of 5 μm. The samples were then analyzed on a fluorescent microscope (excitation: 485 nm and emission: 580 nm).
# [8] = In-vitro doxorubicin release from CaS/HA pellets; type: physicochemical
# Description: Methods: Pellets of CaS/HA biomaterial were made by mixing 10 μg Doxorubicin/pellet. Each pellet containing 10 μg Doxorubicin was immersed in 1 mL PBS at two different pH (5 and 7.4). At each time point, old PBS was frozen until further analysis and the tube refilled with 1 mL fresh PBS. The experiment was conducted for a period of 4-weeks. Supernatants were analyzed on a spectro fluorimeter (excitation: 485 nm and emission: 580 nm).
# [9] = Tetracycline uptake in CaS/HA pellet in muscle pouch, fluorescence microscopy; details: 1 day later
# Description: Methods: A pellet of CaS/HA biomaterial (5 mm diameter×2 mm height) was placed in an abdominal muscle pouch of rats. […] 1-day later, the animals were sacrificed and the pellet of CaS/HA as well as surrounding muscle was harvested, fixed in formalin (4%) and embedded in paraffin. The tissue was then cut using a microtome to a thickness of 5 μm. The sections were de-paraffinized using xylene, rehydrated using decreasing ethanol gradient and cleared in water. Finally, the sections were analyzed on a fluorescence microscope (Zeiss, Japan Filter: FITC, Gain: 0, Exposure: 150 ms).
# S. aureus ATCC 25923 = test: In-vivo biomodulation of HA pellets by systemic TET, disk diffusion assay; type: cell-based; details: TET 25 mg/rat i.p. for 3 days, 24 h after 3rd injection
# Description: METHODS: (1) In-vitro binding experiment: Nano-HA powder of <200 nm particle size, with a majority of the particles being in size of about 50 nm (100 mg; Fluidnova) was measured in 2 mL microcentrifuge tubes in triplicates and 1 mL of TET solution (4 μg/mL) was added. After vortex mixing, tubes were kept on a rotator at 180 RPM for 1, 6, and 12 h. At desired time points, the tubes were removed and centrifuged at 14000 RPM for 2 min. The supernatant was discarded and sediments were then “washed” 4 times by adding 1 mL of saline (NaCl 0.9%) followed by vortex mixing and centrifuging at 14000 RPM for 2 min. After 4 washing-cycles, supernatants were discarded and 60 μL of hyaluronic acid (HAD, 1 mg/mL) was added to the sediments and mixed. Pastes were then transferred to an elastic mold (Ø=4.7 mm) and placed at −20° C. for an hour to freeze nano-HA paste into pellet. Frozen pellets were removed from the molds and brought to room temperature. […] After overnight incubation at 37° C., the diameter of the zone of inhibition (ZOI) around the pellets were measured.
# (2) In-vivo biomodulation: Pellets of nano-/micro-HA were prepared by mixing 100 mg of nano-/micro-HA (Fluidnova, wherein the micro-HA particles are about 10 μm, and wherein the nano-HA particles are less than 200 nm and a majority of the nano-HA particles about 50 nm) with 60 and 80 μL of HAD, (1 mg/mL) respectively. […]
# [10] = Long term elution of gentamycin from HA/Sulphate carrier; type: physicochemical
compound,measurement,setting,value
NNC(=O)c1ccncc1 [Isoniazid],antibiotic released from CaS/HA,[1],approximately 60%
CN[C@H](CC(C)C)C(=O)N[C@H]1C(=O)N[C@@H](CC(N)=O)C(=O)N[C@H]2C(=O)N[C@H]3C(=O)N[C@H](C(=O)N[C@H](C(=O)O)c4cc(O)cc(O)c4-c4cc3ccc4O)[C@H](O)c3ccc(c(Cl)c3)Oc3cc2cc(c3O[C@@H]2O[C@H](CO)[C@@H](O)[C@H](O)[C@H]2O[C@H]2C[C@](C)(N)[C@H](O)[C@H](C)O2)Oc2ccc(cc2Cl)[C@H]1O [Vancomycin],inhibition of bacterial growth by CaS/HA with locally added antibiotic,S. aureus,could not inhibit bacterial growth
"O=P(O)(O)C(O)(Cn1ccnc1)P(=O)(O)O [ZA, Zoledronic Acid]",time the drug stays in the apatite material,[2]; listed as zoledronic acid,6 months
O=P(O)(O)C(O)(Cn1ccnc1)P(=O)(O)O [^14C-ZA],time the drug stays in the apatite material,[2],at least 6 months
same,"uptake of 14C-ZA, micro (10 μm) vs nano (<200 nm) apatite particles",[3],higher in micro-apatite particles compared to nano-apatite particles in 4 out of 5 specimens
same,uptake of 14C-ZA in CaS/HA biomaterial,"[4]; 0.1 mg/kg sub-cutaneous 2 weeks after surgery, measured 24 h later",obvious
same,radioactivity in muscle surrounding the implant,"[4]; 0.1 mg/kg sub-cutaneous, 24 h later",very low radioactive counts
same,increase of counts of 14C-ZA after 2 injections compared to one injection,[5]; micro-particles (10 μm),72%
same,higher counts of 14C-ZA after 2 injections compared to one injection,[5]; nano-apatite particles (<200 nm),77%
COc1cccc2c1C(=O)c1c(O)c3c(c(O)c1C2=O)C[C@@](O)(C(=O)CO)C[C@@H]3O[C@H]1C[C@H](N)[C@H](O)[C@H](C)O1 [doxorubicin],drug bound to apatite particles,[6]; 5 mg apatite particles,approximately 10%
same,drug bound to apatite particles,[6]; 10 mg apatite particles,30%
same,drug bound to apatite particles,[6]; 20 mg apatite particles,approximately 75%
same,fluorescence at the site of injection,"[7]; 5 mg/kg, 1 day after injection, positive control site",Strong fluorescent staining
same,fluorescence in muscle 1 cm distal from the implant,"[7]; 5 mg/kg, 1 day later",did not show any fluorescence
same,fluorescence in apatite particles and area immediately around,"[7]; 25 mg nano apatite, 5 mg/kg 2 weeks post implantation, 1 day later",relatively weak but positive signal
same,release at later time points,"[8]; after day 3, up to 4 weeks",No further release
same,burst release of the drug from CaS/HA,"[8]; day 1 and 3, PBS pH 5 and 7.4, 10 μg/pellet",20-35%
same,release in low pH group compared with pH 7.4,[8]; pH 5 vs 7.4,slightly higher release
CN(C)[C@@H]1C(O)=C(C(N)=O)C(=O)[C@@]2(O)C(O)=C3C(=O)c4c(O)cccc4[C@@](C)(O)[C@H]3C[C@@H]12 [tetracycline],uptake of tetracycline in CaS/HA biomaterial,[9]; 25 mg/kg sub-cutaneous 2 weeks after surgery,clear uptake
same,uptake of tetracycline in surrounding muscle,[9]; 25 mg/kg sub-cutaneous,no uptake
same,ZOI of kidney samples,S. aureus ATCC 25923,14-17 mm
same,ZOI of liver samples,S. aureus ATCC 25923,10-12 mm
Gentamycin,inhibition of bacterial growth by CaS/HA with locally added antibiotic,S. aureus,could not inhibit bacterial growth
same,release of gentamycin from biphasic HA/Sulphate carrier,[10]; at one month,complete release
same,time by which the Apatite/Sulphate material releases gentamycin,"[10]; trend line, elution over 2 months",≤ 4 weeks
